Measured values from patent US20120231073A1, “DEXLANSOPRAZOLE COMPOSITIONS” (DR. REDDY'S LABORATORIES, INC., priority 2008, published 2012).

Experiments:
[1] = Particle size distribution using a Malvern instrument; assay type: physicochemical
Text: The D10, D50, and D90 values are useful ways for indicating a particle size distribution. D90 is the size value where at least 90 volume percent of the particles have a size smaller than the said value; Likewise D10 refers to 10 volume percent of the particles having a size smaller than the said value. D50 refers to at least 50 volume percent of the particles having a size smaller than the said value and D[4,3] value refers to the mean particle size. Methods for determining D10, D50 D90 and D[4,3] include laser light diffraction, such as using equipment sold by Malvern Instruments Ltd., Malvern, Worcestershire, United Kingdom. Other types of equipment may be used, as is known in the art.
The premixes of Example 1 and Example 2 are analyzed for particle size distribution using a Malvern instrument and the results are below: […]

[2] = Glass transition temperature (Tg) by differential scanning calorimetry; assay type: physicochemical
Protocol: The glass transition temperature (Tg) is determined for premixes using differential scanning calorimetry and the results are below:
The glass transition temperatures of the premix compositions are greater than that of dexlansoprazole (amorphous).

D10 [1]: 9.061 μm
D50 [1]: 22.182 μm
D90 [1]: 42.598 μm
Tg (glass transition temperature) [2]: 55.48 °C
Compound: Cc1c(OCC(F)(F)F)ccnc1C[S@@+]([O-])c1nc2ccccc2[nH]1 [Amorphous dexlansoprazole, (+)-2-[(R)-{[3-methyl-4-(2,2,2-trifluoroethoxy)pyridin-2-yl]methyl}sulfinyl]-1H-benzimidazole]
